Source: ChEMBL document CHEMBL1201862, “PubChem BioAssay data set” (2004)
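A five-concentration, 48-hour dose response in 96-well plates underlies each endpoint, interpolated linearly between surrounding concentrations. GI50 marks 50% less growth.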 Calls of active or inactive are those of the source. No stated cut-off is given here; in the data, active = GI50 up to about 1.1 µM and inactive = higher.

Columns and labels:
Assay in all cases: inhibition of tumour cell growth, NCI panel, 48 h
[1] = test system: NCI-H522
[2] = test system: HT-29
[3] = test system: HOP-62
[4] = test system: TK-10
[5] = test system: U-251
[6] = test system: IGROV-1
[7] = test system: SNB-75
[8] = test system: SF-295
[9] = test system: SK-MEL-28
[10] = test system: OVCAR-8
[11] = test system: SK-MEL-2
[12] = test system: SK-OV-3
[13] = test system: COLO 205
[14] = test system: NCI-H226
[15] = test system: OVCAR-5
[16] = test system: MDA-N
[17] = test system: MDA-MB-435
[18] = test system: SK-MEL-5
[19] = test system: BT-549

Compound: O=C(COc1ccccc1Cl)N1N=C(c2ccccc2)CC1(O)c1ccccc1 (configuration not stated)
- GI50 [1]: 41.9 µM (inactive)
- GI50 [2]: 17 µM (inactive)
- GI50 [3]: 15.1 µM (inactive)
- GI50 [4]: 17.1 µM (inactive)
- GI50 [5]: 11.7 µM (inactive)
- GI50 [6]: 17.9 µM (inactive)
- GI50 [7]: 47.6 µM (inactive)
- GI50 [8]: 20.5 µM (inactive)
- GI50 [9]: 17.4 µM (inactive)
- GI50 [10]: 16.6 µM (inactive)
- GI50 [11]: 18.9 µM (inactive)
- GI50 [12]: 14.9 µM (inactive)
- GI50 [13]: 18 µM (inactive)
- GI50 [14]: 18.5 µM (inactive)
- GI50 [15]: 19.4 µM (inactive)

Compound: CC(C)(C)C=C=C(C(C)(C)C)P(=O)(O)O
- GI50 [1]: > 100 µM (inactive)
- GI50 [16]: > 100 µM (inactive)
- GI50 [17]: > 100 µM (inactive)
- GI50 [2]: > 100 µM (inactive)
- GI50 [3]: > 100 µM (inactive)
- GI50 [4]: > 100 µM (inactive)
- GI50 [5]: > 100 µM (inactive)
- GI50 [6]: > 100 µM (inactive)
- GI50 [7]: > 100 µM (inactive)
- GI50 [8]: > 100 µM (inactive)
- GI50 [9]: > 100 µM (inactive)
- GI50 [10]: > 100 µM (inactive)
- GI50 [11]: > 100 µM (inactive)
- GI50 [12]: > 100 µM (inactive)
- GI50 [13]: > 100 µM (inactive)
- GI50 [14]: > 100 µM (inactive)
- GI50 [15]: > 100 µM (inactive)
- GI50 [18]: > 100 µM (inactive)

Compound: CCOC1=C/C(=N\Nc2ccc([N+](=O)[O-])cc2)CCC1
- GI50 [1]: 4.45 µM (inactive)
- GI50 [17]: 16.8 µM (inactive)
- GI50 [2]: 14.6 µM (inactive)
- GI50 [3]: 37.5 µM (inactive)
- GI50 [4]: 25.5 µM (inactive)
- GI50 [5]: 19.3 µM (inactive)
- GI50 [6]: 15 µM (inactive)
- GI50 [7]: 26.4 µM (inactive)
- GI50 [8]: 13.1 µM (inactive)
- GI50 [9]: 23.2 µM (inactive)
- GI50 [10]: 16.4 µM (inactive)
- GI50 [11]: 21.5 µM (inactive)
- GI50 [12]: 44.7 µM (inactive)
- GI50 [13]: 15.3 µM (inactive)
- GI50 [14]: 41.9 µM (inactive)
- GI50 [19]: 13.6 µM (inactive)
- GI50 [15]: 42.4 µM (inactive)
- GI50 [18]: 18.9 µM (inactive)

Compound: CC(=O)c1cc2ccccc2[n+]([O-])c1N
- GI50 [1]: > 100 µM (inactive)
- GI50 [16]: > 100 µM (inactive)
- GI50 [17]: > 100 µM (inactive)
- GI50 [2]: > 100 µM (inactive)
- GI50 [3]: > 100 µM (inactive)
- GI50 [4]: > 100 µM (inactive)
- GI50 [5]: > 100 µM (inactive)
- GI50 [6]: > 100 µM (inactive)
- GI50 [8]: > 100 µM (inactive)
- GI50 [9]: > 100 µM (inactive)
- GI50 [10]: > 100 µM (inactive)
- GI50 [11]: > 100 µM (inactive)
- GI50 [12]: > 100 µM (inactive)
- GI50 [13]: > 100 µM (inactive)
- GI50 [14]: > 100 µM (inactive)
- GI50 [15]: > 100 µM (inactive)
- GI50 [18]: > 100 µM (inactive)

Compound: COc1ccc2c3c([nH]c2c1)CCN(CCCC(=O)c1ccc(F)cc1)C3
- GI50 [1]: 23.3 µM (inactive)
- GI50 [16]: 20 µM (inactive)
- GI50 [17]: 17.1 µM (inactive)
- GI50 [2]: 4.91 µM (inactive)
- GI50 [3]: 12.2 µM (inactive)
- GI50 [4]: 15.5 µM (inactive)
- GI50 [5]: 17.2 µM (inactive)
- GI50 [6]: 18.4 µM (inactive)
- GI50 [7]: 12.2 µM (inactive)
- GI50 [8]: 15.7 µM (inactive)
- GI50 [9]: 15.3 µM (inactive)
- GI50 [10]: 15.6 µM (inactive)
- GI50 [11]: 17.5 µM (inactive)
- GI50 [12]: 19.4 µM (inactive)
- GI50 [13]: 12.8 µM (inactive)
- GI50 [14]: 16.5 µM (inactive)
- GI50 [15]: 13.8 µM (inactive)
- GI50 [18]: 13.2 µM (inactive)

Compound: O=c1c2cc(I)ccc2nc(-c2cccs2)n1/N=C/c1ccccc1
- GI50 [1]: > 100 µM (inactive)
- GI50 [17]: > 100 µM (inactive)
- GI50 [2]: > 100 µM (inactive)
- GI50 [3]: > 100 µM (inactive)
- GI50 [4]: > 100 µM (inactive)
- GI50 [5]: > 100 µM (inactive)
- GI50 [6]: > 100 µM (inactive)
- GI50 [7]: > 100 µM (inactive)
- GI50 [8]: > 100 µM (inactive)
- GI50 [9]: > 100 µM (inactive)
- GI50 [10]: > 100 µM (inactive)
- GI50 [11]: 0.536 µM (active)
- GI50 [12]: > 100 µM (inactive)
- GI50 [13]: > 100 µM (inactive)
- GI50 [14]: > 100 µM (inactive)
- GI50 [19]: > 100 µM (inactive)
- GI50 [15]: > 100 µM (inactive)
- GI50 [18]: > 100 µM (inactive)

Compound: O=c1c2ccccc2nnn1-c1n[nH]c2ccccc12
- GI50 [1]: > 100 µM (inactive)
- GI50 [17]: > 100 µM (inactive)
- GI50 [2]: 63.4 µM (inactive)
- GI50 [3]: > 100 µM (inactive)
- GI50 [4]: > 100 µM (inactive)
- GI50 [5]: > 100 µM (inactive)
- GI50 [6]: > 100 µM (inactive)
- GI50 [7]: > 100 µM (inactive)
- GI50 [8]: > 100 µM (inactive)
- GI50 [9]: > 100 µM (inactive)
- GI50 [11]: > 100 µM (inactive)
- GI50 [13]: > 100 µM (inactive)
- GI50 [19]: > 100 µM (inactive)
- GI50 [15]: 13.9 µM (inactive)
- GI50 [18]: 37.8 µM (inactive)

Compound: Cc1cc(Br)c(N2C3=C(CC4=C2CCCC4=O)C(=O)CCC3)c(Br)c1
- GI50 [2]: 42.3 µM (inactive)
- GI50 [4]: > 100 µM (inactive)
- GI50 [5]: 32.9 µM (inactive)
- GI50 [6]: > 100 µM (inactive)
- GI50 [7]: 46.1 µM (inactive)
- GI50 [9]: > 100 µM (inactive)
- GI50 [10]: 44.6 µM (inactive)
- GI50 [12]: > 100 µM (inactive)
- GI50 [14]: 72.1 µM (inactive)
- GI50 [19]: 51.3 µM (inactive)
- GI50 [15]: > 100 µM (inactive)
- GI50 [18]: 38.7 µM (inactive)

Compound: COc1ccc(C23OCC(Cc4cc(OC)c(OC)cc42)C3COC(C)=O)cc1OC (configuration not stated)
- GI50 [1]: > 100 µM (inactive)
- GI50 [17]: > 100 µM (inactive)
- GI50 [2]: > 100 µM (inactive)
- GI50 [3]: > 100 µM (inactive)
- GI50 [4]: > 100 µM (inactive)
- GI50 [5]: > 100 µM (inactive)
- GI50 [7]: > 100 µM (inactive)
- GI50 [8]: > 100 µM (inactive)
- GI50 [9]: > 100 µM (inactive)
- GI50 [11]: > 100 µM (inactive)
- GI50 [12]: > 100 µM (inactive)
- GI50 [13]: > 100 µM (inactive)
- GI50 [14]: 5.66 µM (inactive)
- GI50 [19]: > 100 µM (inactive)
- GI50 [15]: > 100 µM (inactive)
- GI50 [18]: 20.7 µM (inactive)

Compound: Cc1ccc([S+]([O-])C[C@@]2(C(F)F)NC(=O)NC2=O)cc1 (some centres not stated)
- GI50 [1]: > 100 µM (inactive)
- GI50 [17]: > 100 µM (inactive)
- GI50 [2]: > 100 µM (inactive)
- GI50 [3]: > 100 µM (inactive)
- GI50 [4]: > 100 µM (inactive)
- GI50 [5]: > 100 µM (inactive)
- GI50 [6]: > 100 µM (inactive)
- GI50 [7]: > 100 µM (inactive)
- GI50 [8]: > 100 µM (inactive)
- GI50 [9]: > 100 µM (inactive)
- GI50 [10]: > 100 µM (inactive)
- GI50 [11]: > 100 µM (inactive)
- GI50 [12]: > 100 µM (inactive)
- GI50 [13]: > 100 µM (inactive)
- GI50 [14]: > 100 µM (inactive)
- GI50 [19]: > 100 µM (inactive)
- GI50 [15]: > 100 µM (inactive)
- GI50 [18]: > 100 µM (inactive)

Compound: CCOC(CNCCC(=O)OC)OCC
- GI50 [1]: > 10 µM (inactive)
- GI50 [16]: > 10 µM (inactive)
- GI50 [17]: > 10 µM (inactive)
- GI50 [2]: > 10 µM (inactive)
- GI50 [3]: > 10 µM (inactive)
- GI50 [4]: > 10 µM (inactive)
- GI50 [5]: > 10 µM (inactive)
- GI50 [6]: > 10 µM (inactive)
- GI50 [7]: > 10 µM (inactive)
- GI50 [8]: > 10 µM (inactive)
- GI50 [9]: > 10 µM (inactive)
- GI50 [10]: > 10 µM (inactive)
- GI50 [11]: > 10 µM (inactive)
- GI50 [12]: > 10 µM (inactive)
- GI50 [13]: > 10 µM (inactive)
- GI50 [14]: > 10 µM (inactive)
- GI50 [18]: > 10 µM (inactive)

Compound: COc1cccc(C2c3cc4c(cc3OC(N3CCCC3)C2C)OCO4)c1 (configuration not stated)
- GI50 [1]: 3.92 µM (inactive)
- GI50 [16]: 1.79 µM (inactive)
- GI50 [17]: 2.7 µM (inactive)
- GI50 [2]: 4.58 µM (inactive)
- GI50 [3]: 4.63 µM (inactive)
- GI50 [4]: 18.6 µM (inactive)
- GI50 [6]: 6.32 µM (inactive)
- GI50 [7]: 4.99 µM (inactive)
- GI50 [8]: 3.04 µM (inactive)
- GI50 [9]: 8.79 µM (inactive)
- GI50 [10]: 18.7 µM (inactive)
- GI50 [11]: 5.48 µM (inactive)
- GI50 [13]: 9.77 µM (inactive)
- GI50 [15]: 24.9 µM (inactive)
- GI50 [18]: 5.53 µM (inactive)
